We go through 1 molecule from US8304252B2, “Stereoselective bioconversion of aliphatic dinitriles into cyano carboxylic acids” (Pfizer Inc., priority 2004, dated 2012).

The data set can be described thus: physchem. As to conditions: 30 °C, pH 7.5, aqueous buffer. Format: physicochemical. The procedure:
This process can be carried out in reaction mixtures comprised of two phases: an aqueous phase, which initially contains enzyme and dissolved 2-isobutyl-succinonitrile, and an organic phase, which consist mainly of racemic 2-isobutyl-succinonitrile. Two-phase reaction mixtures are prepared by adding 2-isobutyl-succinonitrile to an aqueous solution of enzyme and buffer agents such that the amount of 2-isobutyl-succinonitrile added exceeds it aqueous solubility limit. The aqueous solubility limit of 2-isobutyl-succinonitrile in 50 mM potassium phosphate (30° C., pH 7.5) is approximately 0.06M. Over the course of the reaction, (S)-3-cyano-5-methylhexanoic acid ammonium salt is formed and increases in concentration in the aqueous phase, while the organic phase decreases in volume and becomes enriched in (R)-2-isobutyl-succinonitrile. Alternately, this process can also be carried out in reaction mixtures comprised of three phases: an aqueous phase, which initially contains dissolved 2-isobutyl-succinonitrile, an organic phase, which consists mainly of racemic 2-isobutyl-succinonitrile, and a solid phase, which consists of enzyme immobilized on an insoluble support. Three-phase reaction mixtures are prepared by the procedure described for two-phase reaction mixture except that an enzyme immobilized on an insoluble support is used in place of an un-immobilized enzyme.

In brackets after ≈: the same amount, converted by molar mass.

With `CC(C)CC(C#N)CC#N` (racemic) [2-isobutyl-succinonitrile], the solubility (usually how much of the substance goes into solution per volume) was roughly 60 mM (≈ 8170 µg/mL).
